# Biological target: T1, CAH (cyanuric acid hydrolase from Azorhizobium caulinodans ORS 571) (Azorhizobium caulinodans, UniProt A8IKD2)
# T1 construct: gene AZC_3892; heterologously expressed and purified; selenomethionine-substituted for the crystal; domains A 1-99, B 108-242, C 249-355; homotetramer
# T1 sequence (A8IKD2 1-356): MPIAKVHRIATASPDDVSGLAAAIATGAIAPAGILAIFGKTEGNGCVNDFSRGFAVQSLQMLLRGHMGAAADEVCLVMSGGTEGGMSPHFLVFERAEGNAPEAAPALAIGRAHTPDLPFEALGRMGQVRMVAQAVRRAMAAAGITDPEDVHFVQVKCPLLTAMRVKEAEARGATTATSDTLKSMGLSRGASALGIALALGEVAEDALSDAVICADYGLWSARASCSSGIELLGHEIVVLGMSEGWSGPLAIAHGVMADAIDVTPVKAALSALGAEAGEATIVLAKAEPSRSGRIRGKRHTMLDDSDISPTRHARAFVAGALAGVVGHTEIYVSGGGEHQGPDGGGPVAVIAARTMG
# Assay: X-ray crystal structure of complex (SAD, […] Å)
# Assay type: binding
# Conditions: selenomethionine protein; Tris-HCl pH 7.0-7.5, magnesium sulfate, 20 °C; active site in both subunits; second site on surface of one subunit at lower occupancy
compound,measurement,value
O=C1CC(=O)NC(=O)N1 [barbituric acid],"X-ray crystal structure of complex (SAD, 2.7 Å)","a molecule of the highly analogous substrate analog, barbituric acid was found"

# — article PMC4051656, “Cyanuric Acid Hydrolase from Azorhizobium caulinodans ORS 571: Crystal Structure and Insights into a New Class of Ser-Lys Dyad Proteins” (PLoS ONE, 2014)
